{
  "source": "patent US20250084056A1",
  "about": "“SUBSTITUTED OXOISOINDOLINYL PIPERIDINE-2,6-DIONE COMPOUNDS” (BRISTOL-MYERS SQUIBB COMPANY, priority 2023, published 2025)",
  "key": {"[1]": {"system": "pS807/811 Rb1", "assay": "Inhibition of RB1 phosphorylation (Western blot) in HCC1569 cells", "format": "cell-based", "conditions": "HCC1569 cancer cells, 24 h, FIG. 1B", "procedure": "(§1) The assay measured the ability of the compound to degrade Cyclin E1, inhibit RB phosphorylation, and to determine the selectivity against degradation of GSPT1 in cancer cells in vitro. HCC1569 cells (ATCC #CRL-2330) were cultured in RPMI media (Gibco, catalog A104910) supplemented with 10% FBS (Gibco, catalog 10091148). Cells were plated in tissue culture-treated 6 well plates at a density of 0.5 million cells per well in 2 mL media. The cells were then incubated overnight in a cell culture incubator (5% CO2 and 37° C.) and allowed to attach to the plate. The following day cells were dosed with compounds at the desired concentrations. Compounds were first resuspended in DMSO to make 10 mM stock, and 20 μM stock was prepared by diluting 10 mM stock in culture media. […] Total protein concentration was measured using a BCA assay kit (Thermo Scientific, cat #P123227). […] Protein was then detected by incubating blots with 2 mL of HRP detection reagent (Thermo scientific cat #A38556) for one minute at room temperature. Excess reagent was drained and gently removed on a Kimwipe and the chemiluminescence signal was detected using Fluorchem imaging system. […] Relative quantification of western blots was performed using ImageJ software, data was then normalized to loading control (β-Actin) first and then to the DMSO-treated sample. […]"}, "[2]": {"system": "HCC1569 breast carcinoma xenograft model", "assay": "In vivo xenograft tumor efficacy study, HCC1569", "set-up": "species or system mice", "conditions": "HCC1569 xenografts, repeated dosing", "procedure": "The anti-cancer efficacy of Example 35 was evaluated in xenograft models by measuring the reduction in tumor volume in animals treated with Example 35 compared to vehicle control animals. First, 5-10×10^6 tumor cells/animal in a 1:1 Matrigel® mix (0.2 mL total volume) were injected subcutaneously into female NSG mice (for NIHOVCAR3) and SCID mice (for HCC1569). Both strains of mice were purchased from Jackson Laboratory. Once tumors reached ˜150-200 mm^3, animals were randomized into groups of 8-10 animals/treatment arm for efficacy studies. Example 35 was administered via oral gavage (PO) at indicated doses and regimens (Table 7). Tumor growth and body weight were measured twice/week during the course of the study to evaluate efficacy and signs of toxicity.\nExample 35 was formulated in 10% ethanol, 10% Vitamin E—TPGS, 30% propylene glycol, 50% PEG400 and administered by oral gavage (final volume 0.2 mL) at the doses indicated in Table 7. […]\nThe efficacy for each treated arm at different dose levels were calculated using the following formula: % ΔT/ΔC=[(TVT−TVT0)/(TVC−TVC0)]×100%. […] The percentage of tumor growth inhibition was calculated from the formula: % TGI=[100%−(% ΔT/ΔC)]. […]\nExample 35 was evaluated for in vivo single-agent efficacy against the HCC1569 breast carcinoma xenograft model and NIHOVCAR3 ovarian adenocarcinoma xenograft model."}, "[3]": {"target": "Cyclin E1 (Homo sapiens, UniProt P24864+Q96SW2)", "sequence (P24864 whole entry)": "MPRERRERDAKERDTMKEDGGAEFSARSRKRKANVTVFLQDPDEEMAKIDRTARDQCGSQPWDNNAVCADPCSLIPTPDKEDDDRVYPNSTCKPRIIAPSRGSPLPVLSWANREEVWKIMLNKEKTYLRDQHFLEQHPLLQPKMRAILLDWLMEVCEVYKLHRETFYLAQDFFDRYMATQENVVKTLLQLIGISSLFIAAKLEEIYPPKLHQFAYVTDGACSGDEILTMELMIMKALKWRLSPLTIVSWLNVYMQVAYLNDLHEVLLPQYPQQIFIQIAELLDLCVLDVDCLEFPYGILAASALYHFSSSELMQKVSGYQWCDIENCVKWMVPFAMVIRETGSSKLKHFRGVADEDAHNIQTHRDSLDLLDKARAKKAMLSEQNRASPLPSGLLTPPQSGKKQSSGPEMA", "sequence (Q96SW2 whole entry)": "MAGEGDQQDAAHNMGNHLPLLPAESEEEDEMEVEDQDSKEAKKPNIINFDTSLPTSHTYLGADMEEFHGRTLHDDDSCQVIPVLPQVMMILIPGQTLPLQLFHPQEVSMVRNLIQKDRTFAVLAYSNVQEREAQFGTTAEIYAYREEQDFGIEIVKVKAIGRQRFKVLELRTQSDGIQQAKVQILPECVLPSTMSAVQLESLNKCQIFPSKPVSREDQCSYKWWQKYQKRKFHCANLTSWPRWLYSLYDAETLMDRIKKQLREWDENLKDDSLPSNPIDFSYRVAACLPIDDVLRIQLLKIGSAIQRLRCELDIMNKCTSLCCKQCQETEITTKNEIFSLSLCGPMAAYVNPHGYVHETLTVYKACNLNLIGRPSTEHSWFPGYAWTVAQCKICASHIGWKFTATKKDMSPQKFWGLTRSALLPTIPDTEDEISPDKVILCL", "sequence (Q16531 whole entry partner)": "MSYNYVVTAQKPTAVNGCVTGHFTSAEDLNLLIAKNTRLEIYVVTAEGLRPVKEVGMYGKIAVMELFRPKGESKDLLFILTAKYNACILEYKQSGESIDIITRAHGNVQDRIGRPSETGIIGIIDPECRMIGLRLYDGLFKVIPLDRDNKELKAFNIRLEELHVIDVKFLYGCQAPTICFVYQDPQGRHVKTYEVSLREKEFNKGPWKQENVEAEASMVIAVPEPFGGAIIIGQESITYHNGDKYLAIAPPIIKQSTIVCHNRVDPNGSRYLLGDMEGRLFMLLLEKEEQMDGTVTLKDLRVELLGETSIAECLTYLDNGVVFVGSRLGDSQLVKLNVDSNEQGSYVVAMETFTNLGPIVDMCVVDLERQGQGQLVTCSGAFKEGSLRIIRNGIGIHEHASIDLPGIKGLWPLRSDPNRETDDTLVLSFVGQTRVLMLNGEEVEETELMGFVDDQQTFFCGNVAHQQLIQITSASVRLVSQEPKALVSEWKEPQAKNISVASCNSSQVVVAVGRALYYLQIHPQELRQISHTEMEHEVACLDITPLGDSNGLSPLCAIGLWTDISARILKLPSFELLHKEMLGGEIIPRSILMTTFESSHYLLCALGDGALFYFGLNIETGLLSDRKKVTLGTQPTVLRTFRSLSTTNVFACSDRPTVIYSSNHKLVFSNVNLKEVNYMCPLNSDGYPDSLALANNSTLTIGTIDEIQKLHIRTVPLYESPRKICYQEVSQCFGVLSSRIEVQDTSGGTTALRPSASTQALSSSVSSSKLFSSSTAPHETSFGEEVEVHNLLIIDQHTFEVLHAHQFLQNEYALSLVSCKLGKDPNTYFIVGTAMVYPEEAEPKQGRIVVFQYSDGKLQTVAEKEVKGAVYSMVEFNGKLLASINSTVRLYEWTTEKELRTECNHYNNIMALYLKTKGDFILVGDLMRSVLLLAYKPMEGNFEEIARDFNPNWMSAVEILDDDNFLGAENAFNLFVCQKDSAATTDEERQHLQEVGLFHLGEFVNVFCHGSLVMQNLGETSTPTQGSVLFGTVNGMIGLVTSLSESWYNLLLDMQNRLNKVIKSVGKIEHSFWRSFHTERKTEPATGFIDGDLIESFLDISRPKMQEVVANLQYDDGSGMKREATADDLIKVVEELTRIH", "assay": "Cellular degradation of Cyclin E1 (Western blot) in HCC1569 cells", "format": "cell-based", "set-up": "endogenous in cells; host or cells: HCC1569 (ATCC CRL-2330)", "conditions": "HCC1569 cancer cells, 24 h, FIG. 1A", "procedure": "as §1"}, "[4]": {"target": "GSPT1 (Homo sapiens, UniProt P15170+Q96SW2)", "sequence (P15170 whole entry)": "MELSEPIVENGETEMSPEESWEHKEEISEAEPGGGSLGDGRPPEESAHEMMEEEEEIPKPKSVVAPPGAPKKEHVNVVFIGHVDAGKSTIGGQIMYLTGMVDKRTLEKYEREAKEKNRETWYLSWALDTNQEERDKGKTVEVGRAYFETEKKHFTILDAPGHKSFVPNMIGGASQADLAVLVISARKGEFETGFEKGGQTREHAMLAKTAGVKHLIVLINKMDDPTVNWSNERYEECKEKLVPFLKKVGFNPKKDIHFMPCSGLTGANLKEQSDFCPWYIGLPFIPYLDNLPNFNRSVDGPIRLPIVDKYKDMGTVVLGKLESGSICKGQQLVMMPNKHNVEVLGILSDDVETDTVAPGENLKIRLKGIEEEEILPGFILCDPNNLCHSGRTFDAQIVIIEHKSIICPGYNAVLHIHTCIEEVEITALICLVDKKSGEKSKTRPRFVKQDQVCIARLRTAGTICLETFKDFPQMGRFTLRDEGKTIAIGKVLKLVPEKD", "sequence (Q96SW2 whole entry)": "as the sequence (Q96SW2 whole entry) above", "sequence (Q16531 whole entry partner)": "as the sequence (Q16531 whole entry partner) above", "assay": "Degradation of GSPT1 (Western blot) in HCC1569 cells", "format": "cell-based", "set-up": "endogenous in cells; host or cells: HCC1569 (ATCC CRL-2330)", "conditions": "HCC1569 cancer cells, 24 h, up to a concentration of 10 μM, FIG. 1C", "procedure": "as §1"}},
  "data": [
    {"smiles": "COc1c(COC(=O)Nc2ccc(Oc3ccc(F)c(F)c3)cc2)ccc2c1C(=O)N([C@H]1CCC(=O)NC1=O)C2", "note": "(single isomer, unassigned) [Example 35, {2-[(3 S)-2,6-dioxopiperidin-3-yl]-4-methoxy-3-oxo-2,3-dihydro-1H-isoindol-5-yl}methyl N-[4-(3,4-difluorophenoxy)phenyl]carbamate]", "values": [
      {"measurement": "inhibition of RB1 phosphorylation", "setting": "[1]", "value": "inhibited RB1 phosphorylation"},
      {"measurement": "anti-tumor activity", "setting": "[2]", "value": "dose-dependent anti-tumor activity"},
      {"measurement": "degradation of Cyclin E1 protein", "setting": "[3]", "value": "induced degradation of Cyclin E1 protein in a dose dependent manner"},
      {"measurement": "degradation of GSPT1 protein", "setting": "[4]", "value": "did not significantly degrade GSPT1 protein"}
    ]}
  ]
}
